For orientation: inhibition in vivo means the change of the read-out against control, counted positive when it falls. Usually Ki stands for the equilibrium dissociation constant of an inhibitor or competing ligand from its target. Lower therefore signals higher affinity.

The values that follow come from ChEMBL document CHEMBL1125524, “Adenosine A1 antagonists. 2. Structure-activity relationships on diuretic activities and protective effects against acute renal failure” (J Med Chem, 1992).

The test system of test [1] is Rattus norvegicus. Description: Percent inhibition of serum creatinine by the compound given as ratio of Cr value in treated to vehicle treated ones after intraperitoneal administration of 1 mg/kg of compound to rats(vehicle 4.82+/-0.24). It is filed as functional. The conditions noted are these: ip.
Test [2] deals with Rattus norvegicus. Description: Effect on urinary excretion potassium and sodium after oral administration of 0.4 mg/kg to rats(potassium and sodium excretion in control rat is 0.180+/-0.017). It is filed as functional, Urine.
The test system of test [3] is Rattus norvegicus. Description: Percent inhibition of serum creatinine by the compound given as ratio of Cr value in treated to vehicle treated ones after intraperitoneal administration of 1 mg/kg of compound to rats(vehicle 4.74+/-0.31). It counts as functional. Conditions: ip.
Test [4] concerns Rattus norvegicus. Description: Serum creatinine concentration measured after intraperitoneal administration of 1 mg/kg of compound to rats(vehicle 4.74+/-0.31). It is filed as functional.
Another test has as its target Adenosine A2 receptor (Rattus norvegicus, UniProt P29276+P30543).
The subject of test [5] is Rattus norvegicus. Description: Oral diuretic activity was measured after oral administration of 0.4 mg/kg to rats(control volume is 1.15+/-0.17). It counts as functional, Urine.
The subject of test [6] is Rattus norvegicus. Description: Ratio of urinary excretion value (Na+ concentration) in treated rats to that in control rats, at a peroral dose of 0.4 mg/Kg. It counts as functional, Urine.
The subject of test [7] is Rattus norvegicus. Description: Urea nitrogen concentration measured after intraperitoneal administration of 1 mg/kg of compound to rats(vehicle 138.8+/-7.8). It counts as functional.
The subject of test [8] is Rattus norvegicus. Put plainly: Ratio of urinary excretion value (urinary volume) in treated rats to that in control rats, at a peroral dose of 0.4 mg/Kg. It is filed as functional, Urine.
For test [9], the system named is Rattus norvegicus. Description: Ratio of urinary excretion value (urinary volume) in treated rats to that in control rats, at a peroral dose of 1.6 mg/Kg. It counts as functional, Urine.
For test [10], the system named is Rattus norvegicus. Put plainly: Serum creatinine concentration measured after intraperitoneal administration of 1 mg/kg of compound to rats(vehicle 4.82+/-0.24). It counts as functional.
The subject of test [11] is Rattus norvegicus. Put plainly: Oral diuretic activity was measured after oral administration of 1.6 mg/kg to rats(control volume is 0.86+/-0.09). It counts as functional, Urine.
Test [12] concerns Rattus norvegicus. Description: Ratio of urinary excretion value (Na+ concentration) in treated rats to that in control rats, at a peroral dose of 1.6 mg/Kg. It counts as functional, Urine.
Test [13] relates to Rattus norvegicus. Put plainly: Urea nitrogen concentration measured after intraperitoneal administration of 1 mg/kg of compound to rats(vehicle 156.2+/-6.1). It is filed as functional.
For another test, the target named is T1, Adenosine receptor A1 (Cavia porcellus, UniProt P47745).
T1 sequence (P47745 whole entry): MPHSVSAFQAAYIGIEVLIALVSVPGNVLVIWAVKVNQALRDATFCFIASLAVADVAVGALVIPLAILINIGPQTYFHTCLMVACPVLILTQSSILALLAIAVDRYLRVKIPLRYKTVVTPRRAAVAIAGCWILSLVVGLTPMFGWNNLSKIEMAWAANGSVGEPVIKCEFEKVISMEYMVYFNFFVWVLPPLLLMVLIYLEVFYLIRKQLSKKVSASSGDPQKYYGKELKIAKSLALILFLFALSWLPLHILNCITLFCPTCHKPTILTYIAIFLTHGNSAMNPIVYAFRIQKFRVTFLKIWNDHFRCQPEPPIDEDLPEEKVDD

Test [14] has as its system Rattus norvegicus. Description: Percent inhibition of Urea nitrogen by the compound given as ratio of UN value in treated to vehicle treated ones after intraperitoneal administration of 1 mg/kg of compound to rats(vehicle 156.2+/-6.1). It is filed as functional. Conditions: ip.
Test [15] relates to Rattus norvegicus. Description: Ratio of sodium ion/potassium ion concentration in treated rats to that in control rats, at a peroral dose of 1.6 mg/Kg. It is filed as functional.
Test [16] deals with Rattus norvegicus. Description: Effect on urinary excretion potassium and sodium after oral administration of 1.6 mg/kg to rats(potassium and sodium excretion in control rat is 0.174+/-0.013). It counts as functional, Urine.
For test [17], the system named is Rattus norvegicus. Put plainly: Percent inhibition of Urea nitrogen by the compound given as ratio of UN value in treated to vehicle treated ones after intraperitoneal administration of 1 mg/kg of compound to rats(vehicle 138.8+/-7.8). It counts as functional. Conditions: ip.
The subject of test [18] is Rattus norvegicus. Description: Ratio of sodium ion/potassium ion concentration in treated rats to that in control rats, at a peroral dose of 0.4 mg/Kg. It is filed as functional.

Description for Adenosine receptor A1: Binding affinity against adenosine A1 receptor in guinea pig forebrain membranes using N6-[3H]cyclohexyladenosine as radioligand

In the case of `CCCCn1c(=O)c2nc(C3CCCC3)[nH]c2n(CCCC)c1=O`, the inhibition in vivo at 1 mg/kg came to 16% in the test on Rattus norvegicus [1], 42% in the test with Rattus norvegicus [3], 2% with Rattus norvegicus [14] and 56% in the test on Rattus norvegicus [17]. Moreover, the Na is 0.309 m equiv 6hr-1 100g-1 with Rattus norvegicus [2] and 0.299 m equiv 6hr-1 100g-1 with Rattus norvegicus [16]. Moreover, the Cr with Rattus norvegicus [4] worked out at 2.74 mg/dL; in the test on Rattus norvegicus [10] it was 4.03 mg/dL. Besides, the inhibition constant (Ki) at Adenosine A2 receptor amounted to 170 nM; at Adenosine receptor A1, 4.2 nM. The Urine volume was 1.45 ml 6hr-1 100g-1 with Rattus norvegicus [5] and 1.6 ml 6hr-1 100g-1 with Rattus norvegicus [11]. The T/C in the test on Rattus norvegicus [6] turned out to be 1.61; in the test on Rattus norvegicus [8] it was 1.26; in the test with Rattus norvegicus [9], 1.86; with Rattus norvegicus [12], 1.72. In addition, the UN in the test on Rattus norvegicus [7] was 75 mg/dL; in the test with Rattus norvegicus [13], 153.6 mg/dL. For the same compound, the “Na+/K+” value is 1.32 in the test with Rattus norvegicus [15] and 1.23 in the test with Rattus norvegicus [18].
